From patent US12050224B2, “Compounds useful as near-infrared fluorescent probes selectively binding to tau aggregates and method of preparing the same” (KOREA INSTITUTE OF SCIENCE AND TECHNOLOGY, priority 2020, dated 2024)

Assays:
[1] = Measurement of absorbance and fluorescence of synthesized compound in ethanol; format: physicochemical; settings: 10 μM in ethanol; for λem: Maximum emission wavelength / λex: Maximum excitation wavelength: average of three measurements; for Stokes shift: difference between excitation and emission
Experimental: In order to investigate the optical properties of the newly synthesized compound in the present invention, the absorbance was measured using a V-730 UV-visible spectrophotometer manufactured by JASCO, and fluorescence was measured using a FlexStation 3 multi-mode microplate reader manufactured by Molecular Devices. Absorbance and fluorescence were measured three times at a concentration of 10 μM in ethanol, and the average thereof is shown in Table 1 below. At this time, T807 (AV-1451) as a Tau positron-emission-tomography (PET) tracer and Thioflavin S, which are commercially available to detect tau production in vivo, were used as a control group.

[2] = target: T1, tau aggregates (Tau-K18 protein) (Homo sapiens, UniProt P10636); test: In vitro binding assay (fluorescence labeling ability) to tau aggregates; settings: for SIaβ: selectivity index = fluorescence intensity of probe bound to Tau aggregate / bound to Aβ aggregate / SItaumono: selectivity index, tau aggregate versus tau monomer / FItau: fold increase = fluorescence intensity of probe bound to tau aggregate / probe (free): compound 10 μM; for FItau: fold increase = fluorescence intensity of probe bound to tau aggregate / probe (free): PBS, 30 min incubation; for selectivity for tau aggregates over amyloid aggregates: in vitro screening as fluorescent probes
T1 construct: aggregation of Tau-K18 protein (0.5 mg/ml in PBS) purified and isolated from E. coli; made in house; host or cells: E. coli
T1 sequence (P10636 561-685 limits assumed): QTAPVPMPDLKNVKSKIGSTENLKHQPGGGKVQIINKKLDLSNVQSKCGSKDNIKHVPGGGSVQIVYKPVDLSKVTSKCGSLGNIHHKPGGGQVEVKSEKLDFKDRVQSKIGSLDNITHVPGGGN
Experimental: (§1) Experimental Example 2-1: Tau and amyloid beta aggregation induction For amyloid aggregation induction, the synthesized Abeta40 (Amyloid Beta 40) peptide was dissolved in PBS at a concentration of 0.5 mg/ml to induce aggregation for 7 days at 37° C. and 200 rpm with shaking. To induce aggregation of tau proteins, aggregation of Tau-K18 protein (0.5 mg/ml in PBS) purified and isolated from E. coli with heparin (0.1 mg/ml) and DTT (100 μM) was induced at 37° C. and 200 rpm for 7 days under shaking conditions. […] At this time, thioflavin S (Th S), which is known to bind to beta-sheet structures such as tau and amyloid aggregates, was used as a control group (Ex: 430 nm, Em: 480-610 nm). Specifically, in order to determine the labeling ability of newly synthesized compounds to tau aggregate proteins, a 25 μl dilution of a 10 μM labeling substance in PBS and 25 id of a 0.125 mg/ml tau or amyloid pre-aggregate or aggregate diluted in PBS were each incubated for 30 minutes, and then a fluorescence spectrum reaction was measured using a spectrophotometer. Selectivity analysis for tau aggregates and amyloid beta aggregates of the novel synthetic compounds of the present invention was performed as described above, and the resulting in vitro fluorescence changes are summarized in Table 2 and FIG. 1 below.

[3] = target: T2, amyloid beta aggregates (Abeta40) (Homo sapiens, UniProt P05067); test: In vitro binding assay (fluorescence labeling ability) to amyloid beta aggregates; settings: compound 10 μM, PBS, 30 min incubation
T2 construct: the synthesized Abeta40 (Amyloid Beta 40) peptide was dissolved in PBS; host or cells: synthetic peptide
T2 sequence (P05067 672-711 limits assumed): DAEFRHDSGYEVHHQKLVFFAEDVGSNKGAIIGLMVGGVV
Experimental: as §1

[4] = target: bovine serum albumin (BSA) (Bos taurus, UniProt P02769); test: Measurement of non-specific binding using BSA; settings: for FIBSA: fold increase = fluorescence intensity of probe bound to BSA / probe (free): compound 10 μM, 0.25 mg/ml BSA, 30 min incubation
bovine serum albumin (BSA), sequence (P02769 25-607): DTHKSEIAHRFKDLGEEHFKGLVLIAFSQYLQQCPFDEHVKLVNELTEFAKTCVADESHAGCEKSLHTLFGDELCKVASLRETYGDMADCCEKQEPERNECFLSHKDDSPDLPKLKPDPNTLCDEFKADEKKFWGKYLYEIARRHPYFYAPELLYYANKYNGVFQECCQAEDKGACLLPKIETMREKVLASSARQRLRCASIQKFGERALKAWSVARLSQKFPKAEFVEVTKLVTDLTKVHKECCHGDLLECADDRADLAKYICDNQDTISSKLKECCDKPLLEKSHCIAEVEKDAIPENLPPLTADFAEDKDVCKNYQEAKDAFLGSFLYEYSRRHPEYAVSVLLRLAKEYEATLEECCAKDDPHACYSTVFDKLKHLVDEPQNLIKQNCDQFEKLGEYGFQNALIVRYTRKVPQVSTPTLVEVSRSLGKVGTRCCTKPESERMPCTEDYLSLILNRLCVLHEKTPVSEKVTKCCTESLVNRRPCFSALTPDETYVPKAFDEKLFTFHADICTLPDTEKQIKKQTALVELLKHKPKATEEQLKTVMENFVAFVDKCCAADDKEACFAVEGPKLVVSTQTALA
Experimental: In order to exclude non-specific binding of the compound to serum, reactivity between the compound and bovine serum albumin (BSA) was further tested. 25 μl of a 10 μM compound was incubated along with 25 μl of 0.25 mg/ml BSA for 30 minutes, and then the fluorescence spectrum reaction was measured using a spectrophotometer. The BSA response was conducted to identify non-selective binding to other proteins in the blood when applied to patients as an imaging agent.

| Molecule | λem: Maximum emission wavelength [1] [nm] | λex: Maximum excitation wavelength [1] [nm] | Stokes shift [1] [nm] | SIaβ: selectivity index = fluorescence intensity of probe bound to Tau aggregate / bound to Aβ aggregate [2] | SItaumono: selectivity index, tau aggregate versus tau monomer [2] | FItau: fold increase = fluorescence intensity of probe bound to tau aggregate / probe (free) [2] | FIAβ: fold increase = fluorescence intensity of probe bound to Aβ aggregate / probe (free) [3] | FIBSA: fold increase = fluorescence intensity of probe bound to BSA / probe (free) [4] | selectivity for tau aggregates over amyloid aggregates [2] [times] | reactivity to BSA ([4]; in words) |
| --- | --- | --- | --- | --- | --- | --- | --- | --- | --- | --- |
| COc1ccc2nc(/C=C/c3ccncc3)ccc2c1 [Compound 14b, (E)-6-methoxy-2-(2-(pyridin-4-yl)vinyl)quinolone] | 420 | 357 | 63 | 1.4 | 1.3 | 0.79 | 0.57 | 0.61 |  |  |
| COc1ccc2nc(/C=C/C=C/c3ccc(N(C)C)nc3)ccc2c1 [Compound 15d, 5-((1E,3E)-4-(6-methoxyquinolin-2-yl)buta-1,3-dien-1-yl)-N,N-dimethylpyridin-2-amine] | 520 | 402 | 118 | 1.1 | 1.3 | 1.33 | 1.25 | 1.05 |  |  |
| COc1ccc2nc(/C=C/C=C/c3ccc([N+](=O)[O-])nc3)ccc2c1 [Compound 15e, 6-methoxy-2-((1E,3E)-4-(6-nitropyridin-3-yl)buta-1,3-dien-1-yl)quinolone] | 587 | 389 | 198 | 2.2 | 4.5 | 0.95 | 0.44 | 0.17 |  |  |
| COc1ccc2nc(/C=C/C(=O)c3ccc(N(C)C)cc3)ccc2c1 [Compound 13a, (E)-1-(4-(dimethylamino)phenyl)-3-(6-methoxyquinolin-2-yl)prop-2-en-1-one] | 601 | 339 | 202 | 4.6 | 5.2 | 5.12 | 1.10 | 1.23 | 4.6 |  |
| COc1ccc2nc(/C=C/c3ccc(C(F)(F)F)cc3)ccc2c1 [Compound 14a, (E)-6-methoxy-2-(4-(trifluoromethyl)styryl)quinolone] | 415 | 359 | 56 | 1.9 | 2.0 | 1.01 | 0.54 | 0.60 |  |  |
| COc1ccc2nc(/C=C/C=C/c3cccc([N+](=O)[O-])c3)ccc2c1 [Compound 15g, 6-methoxy-2-((1E,3E)-4-(3-nitrophenyl)buta-1,3-dien-1-yl)quinolone] | 452 | 361 | 91 | 5.8 | 3.7 | 3.42 | 0.58 | 1.33 | 5.8 |  |
| CNc1ccc(/C=C/C=C/C(=O)c2ccc3cc(OC)ccc3n2)cc1 [Compound 16b, (2E,4E)-1-(6-methoxyquinolin-2-yl)-5-(4-(methylamino)phenyl)penta-2,4-dien-1-one] | 714 | 475 | 239 | 1.0 | 2.1 | 9.22 | 9.45 | 56.71 |  |  |
| COc1ccc2nc(/C=C/C=C/c3ccc(N(C)C)cc3)ccc2c1 [Compound 15c, 4-((1E,3E)-4-(6-methoxyquinolin-2-yl)buta-1,3-dien-1-yl)-N,N-dimethylaniline] | 600 | 399 | 201 | 1.2 | 3.9 | 0.81 | 0.18 | 0.19 |  |  |
| COc1ccc2nc(/C=C/C(=O)c3ccc(Br)cc3)ccc2c1 [Compound 13e, (E)-1-(4-bromophenyl)-3-(6-methoxyquinolin-2-yl)prop-2-en-1-one] | 415 | 314 | 101 | 3.8 | 2.2 | 5.18 | 1.37 | 1.39 | 3.8 |  |
| COc1ccc2nc(C(=O)/C=C/C=C/c3ccc(N(C)C)cc3)ccc2c1 [Compound 16c, (2E,4E)-5-(4-(dimethylamino)phenyl)-1-(6-methoxyquinolin-2-yl)penta-2,4-dien-1-one] | 678 | 450 | 228 | 1.2 | 1.7 | 1.71 | 1.43 | 1.29 |  |  |
| COc1ccc2nc(/C=C/C=C/c3ccc(F)cc3F)ccc2c1 [Compound 15h, 6-methoxy-2-((1E,3E)-4-(2.4-difluorophenyl)buta-1,3-dien-1-yl)quinolone] | 415 | 360 | 55 | 1.5 | 2.8 | 2.35 | 1.56 | 0.70 |  |  |
| Thioflavin S [reference compound] | 451 | 347 | 104 | 0.8 | 4.3 | 15.32 | 19.95 | 7.133 |  | high reactivity |
| Fc1ccc(-c2ccc3c(c2)[nH]c2ccncc23)cn1 [Compound T807, reference compound] | 369 | 304 | 65 |  |  |  |  |  |  |  |
